Experimental data taken from patent US20230226259A1, “NANOFIBER CARDIAC PATCH AND METHODS OF USE THEREOF” (Ohio State Innovation Foundation, priority 2020, published 2023).

Key:
COVID-19 patients = conditions: cited from earlier work
[1] = test system: hiPSC-CMs cultured on aligned coaxial patches; assay: Particle image velocimetry (PIV) optical contractility of aligned coaxial cardiac patch; assay type: cell-based, human; conditions: 100 nM, patches at two weeks of culture
Procedure: Cross-correlation (“PIV”) analysis of images. Cell contractility kinetics were assessed using the optical flow/PIV method. Briefly, a motion pattern (velocity field) captured on a pair of images was calculated by dividing the first image into overlapping tiles, each 64 pixels wide. The second image was then scanned pixel-by-pixel, by shifting an equally sized (64×64 pixels) window. The most similar (by Euclidean distance) tile on the second image was then assumed to be the location where the pattern in the first image moved. The resulting displacement vectors characterizing each image tile were then interpolated and denoised by a thin-plate spline fit, yielding a coarse displacement field. The coarse estimate was used to construct a second, higher resolution displacement field. […] Fourier spectra were calculated from D(t) beat patterns using the discrete Fourier transform algorithm. Power densities were calculated as the magnitudes of the squared Fourier spectra, and indicate periodicity within the signal in the form of peaks at the corresponding frequencies. When the analyzed signal is not a pure sine wave, harmonics are expected to appear at integer multiples of the fundamental frequency f(2f, 3f, etc). […]

hiPSC-CMs = assay: Multi-electrode array (MEA) field potentials of hiPSC-CMs cultured in 2-D or on aligned coaxial patches (3-D) after cardiac drugs; assay type: cell-based, human; conditions: for beating frequency (beats per minute): change after treatment
fertilized chicken eggs = assay: In ovo CAM assay; assay type: in vivo; conditions: in Geltrex carrier, 5 days
Procedure: The angiogenic potential of bFGF loaded PDA-NPs and DPDA-NPs was evaluated by using fertilized chicken eggs. The eggs were incubated in a hatching incubator for 5 days, following the incubation the viable eggs were selected and grouped as follows (bFGF+Geltrex, bFGF-PDA-NPs+Geltrex, bFGF-DPDA-NPs+Geltrex and only Geltrex). A window was made on the eggshell and a sterilized nylon mesh was placed inside the egg. The test samples were loaded on the nylon mesh and the window was covered by placing a 35 mm plate and secured by using tape. The eggs were further incubated for 5 days, following which it was carefully dissected to retrieve the nylon mesh and imaged using a stereomicroscope (Leica).

CCN(CCO)CCCC(C)Nc1ccnc2cc(Cl)ccc12 (stereo not shown) [HCQ, hydroxychloroquine]
QT interval (COVID-19 patients; COVID-19 / SARS-CoV-2 patients): QT prolongation
association between treatment and consequent intubation or death (COVID-19 patients; New York study (Geleris et al)): no significant association
recovery of patients (COVID-19 patients; randomized clinical trial, administration for 5 days): improved recovery
cell death (hiCMs): increased
cell viability (hiCMs): decreased
electrophysiological function (MEA and patch clamp) (hiCMs): considerable changes

CC(C)NCC(O)c1ccc(O)c(O)c1 (stereo not shown) [ISO, Isoproterenol]
spontaneous beat amplitude (beat patterns) [1]: increase
average frequency of spontaneous beating ([1]; mean +- SEM, untreated 0.136 Hz): 1.497+−0.0394 Hz
beat period (hiPSC-CMs; 2-D culture, 10 nM ISO): 0.67 ± 0.04 s
beat period (hiPSC-CMs; 2-D culture, 100 nM ISO): 0.66 ± 0.03 s
beat period (hiPSC-CMs; 3-D culture (aligned coaxial patch), 10 nM ISO): 0.8 ± 0.15 s
beat period (hiPSC-CMs; 3-D culture (aligned coaxial patch), 100 nM ISO): 0.66 ± 0.1 s
Fridericia-corrected field potential duration (FPDc), change vs baseline (hiPSC-CMs; both 2-D and 3-D cultures): dose-dependent shortening of the QT interval
beat period, change vs baseline (hiPSC-CMs; both 2-D and 3-D cultures): significant dose-dependent decrease
beating frequency (beats per minute) (hiPSC-CMs; both 2-D and 3-D cultures): increase

COc1ccc(CCN(C)CCCC(C#N)(c2ccc(OC)c(OC)c2)C(C)C)cc1OC (stereo not shown) [Verapamil]
FPDc, change with dose (hiPSC-CMs; 3-D culture only, 0.1 μM and 0.3 μM): dose-dependent decrease
beat period, change vs baseline (hiPSC-CMs; both 2-D and 3-D cultures): significant fold decrease
beating frequency (beats per minute) (hiPSC-CMs; both 2-D and 3-D cultures): increase

bFGF: basic fibroblast growth factor
new blood vessel formation on nylon mesh (fertilized chicken eggs): remarkable angiogenesis
